Source: PubChem BioAssay (NCI)
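Where inhibition never reached the appropriate level, the endpoint shown equals the highest concentration tested. Otherwise, values were interpolated linearly from a five-concentration, 48-hour dose response in 96-well plates. Definition used: TGI = concentration required for complete inhibition of growth.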

Legend:
Test in all cases: inhibition of tumour cell growth, NCI panel, 48 h
A549 NSCLC = test system: A549 NSCLC
EKVX NSCLC = test system: EKVX NSCLC
SNB-75 CNS = test system: SNB-75 CNS
PC-3 prostate = test system: PC-3 prostate
OVCAR-8 ovarian = test system: OVCAR-8 ovarian
UO-31 renal = test system: UO-31 renal
MALME-3M melanoma = test system: MALME-3M melanoma
NCI-H226 lung = test system: NCI-H226 lung
HOP-62 NSCLC = test system: HOP-62 NSCLC
SK-MEL-5 melanoma = test system: SK-MEL-5 melanoma
HS 578T breast = test system: HS 578T breast
DU-145 prostate = test system: DU-145 prostate
BT-549 breast = test system: BT-549 breast
MCF7 breast = test system: MCF7 breast
HL-60(TB) leukemia = test system: HL-60(TB) leukemia
IGROV1 ovarian = test system: IGROV1 ovarian
SW-620 colon = test system: SW-620 colon
M14 melanoma = test system: M14 melanoma
SF-539 CNS = test system: SF-539 CNS
SNB-19 CNS = test system: SNB-19 CNS
CAKI-1 renal = test system: CAKI-1 renal
LOX IMVI melanoma = test system: LOX IMVI melanoma
RXF 393 renal = test system: RXF 393 renal
T-47D breast = test system: T-47D breast
UACC-62 melanoma = test system: UACC-62 melanoma
SK-MEL-2 melanoma = test system: SK-MEL-2 melanoma
MOLT-4 leukemia = test system: MOLT-4 leukemia
HCT-116 colon = test system: HCT-116 colon
OVCAR-4 ovarian = test system: OVCAR-4 ovarian
OVCAR-5 ovarian = test system: OVCAR-5 ovarian
SF-295 CNS = test system: SF-295 CNS
NCI-H522 lung = test system: NCI-H522 lung
OVCAR-3 ovarian = test system: OVCAR-3 ovarian
TK-10 renal = test system: TK-10 renal
NCI-H460 lung = test system: NCI-H460 lung
HCT-15 colon = test system: HCT-15 colon
SF-268 CNS = test system: SF-268 CNS
K-562 leukemia = test system: K-562 leukemia
RPMI-8226 leukemia = test system: RPMI-8226 leukemia
MDA-MB-435 = test system: MDA-MB-435
SR leukemia = test system: SR leukemia
KM12 colon = test system: KM12 colon
COLO 205 colon = test system: COLO 205 colon
SN12C renal = test system: SN12C renal
SK-OV-3 ovarian = test system: SK-OV-3 ovarian
MDA-N = test system: MDA-N
SK-MEL-28 melanoma = test system: SK-MEL-28 melanoma
A498 renal = test system: A498 renal
CCRF-CEM leukemia = test system: CCRF-CEM leukemia
MDA-MB-231 breast = test system: MDA-MB-231 breast
UACC-257 melanoma = test system: UACC-257 melanoma
HT29 colon = test system: HT29 colon
NCI/ADR-RES ovarian = test system: NCI/ADR-RES ovarian
U251 CNS = test system: U251 CNS
786-0 renal = test system: 786-0 renal
HCC-2998 colon = test system: HCC-2998 colon
NCI-H23 lung = test system: NCI-H23 lung
HOP-92 NSCLC = test system: HOP-92 NSCLC
ACHN renal = test system: ACHN renal

Measured: TGI

CSc1nc(N)c(NC2OC(CO)C(O)C2O)c(=O)[nH]1 (stereo unspecified)
not listed: HCC-2998 colon | NCI-H23 lung | HOP-92 NSCLC | ACHN renal
> 100 µM: all other assays above

Cc1ccc(-c2nc3ccc(Cl)cc3[nH]2)cc1
not listed: OVCAR-5 ovarian | A498 renal
> 100 µM: all other assays above

O=C(NNC1=NCCN1)c1ccco1
not listed: CAKI-1 renal | A498 renal
> 100 µM: all other assays above

O=C(O)C/C=C/CC(=O)O
not listed: SF-539 CNS | HOP-92 NSCLC
> 100 µM: all other assays above
